“Also recorded” adds a separate entry of the source. Where two headings read alike, the source gives them in different places.
Assays:
Type in all cases: physicochemical
[1] = Solubility of the crystalline forms
pH solubility profile = test: pH solubility profile
[2] = Hygroscopicity by dynamic vapor sorption (DVS); conditions: for Hydrophilicity / hygroscopicity rating from DVS / Hysteresis between initial and final state, DVS: 37° C.; for Water (moisture) uptake, DVS: from 0% to 100% RH at 37° C.
Experimental: DVS The temperature and RH are pre-set according to the initial temperature and RH. Method at 37° C.: • Equilibrating 20 min at 50% • Set from 50% to 0% • Equilibrating 20 min at 0% RH • Set from 0% to 100% by step of 10% RH (50% RH per hour) • 3 hours at 100% RH • From 100% RH to 0% RH by step of 10% RH (−50% RH per hour) • Equilibrating 20 min at 0% RH • Set from 0% to 50% • Equilibrating 20 min at 50% RH Particle Size Distribution (Malvern)

[3] = Thermal analysis (DSC/TGA/hot stage): decomposition
Experimental: Thermal Analysis (DSC/TGA/Hot Stage) An accurate amount of compound (mg scale) is set up in 40 μL Al crucible with perforated lids. The heating rate is 20° C./min in a nitrogen gas flow. The heating ranged from 30 to 400° C.

[4] = Stability under simulated storage conditions: XRPD under temperature and relative humidity; conditions: for XRPD under RH: phase transition: 10% to 80% RH at 25° C.
Experimental: Stability Under Simulated Storage Conditions: XRPD The stability of crystalline Forms I and XVI was characterized by XRPD under temperature and relative humidity conditions that stimulate potential storage conditions. XRPD XRPD was performed on a PHILIPS PANalytical, X'Pert Pro. diffractometer The experimental conditions are the following: • Configuration Bragg-Brentano: θ−θ • Source: Cu with Kα1 at λ=1.5406 Å. • The power supply works at 45 kV and 40 mA. • Detector: PSD X'Celerator in scanning mode • Sample temperature: room temperature • Angular variation: from 2θ=3° to 45° • Step size [° 2θ]: 0.008 • Scan step time (in s): 13 39 • Duration: 20 min according to the diffraction intensity A few mg of sample were prepared on a silicon plate without any special treatment other than a slight pressure to obtain a flat and homogeneous surface for reproducible and repeatable results.

[5] = Particle size distribution (Malvern laser diffraction); conditions: for Particle size D10 after sonication / Particle size D50 after sonication / Particle size D90 after sonication: after ultrasound treatment (40 seconds); for Particle size D10 / Particle size D50 / Particle size D90: without ultrasound treatment
Experimental: • Equilibrating 20 min at 50% • Set from 50% to 0% • Equilibrating 20 min at 0% RH • Set from 0% to 100% by step of 10% RH (50% RH per hour) • 3 hours at 100% RH • From 100% RH to 0% RH by step of 10% RH (−50% RH per hour) • Equilibrating 20 min at 0% RH • Set from 0% to 50% • Equilibrating 20 min at 50% RH Particle Size Distribution (Malvern) A total of 3 measurements by batch were made to ensure repeatable and reproducible results. • Dispersant: Silicon oil. A good dispersion is observed in this media and Compound (1) is not soluble in silicon oil. • Stirring: 2000 rpm • lens: 300RF • Analysis model: polydisperse • Presentation code: 3OAE • Number of measurement sweeps: 5000 • Density: 1.000 g·cm^3 • With or without stage of ultrasound

[6] = Stability under simulated storage conditions: XRPD under temperature and relative humidity; conditions: for XRPD under temperature: phase transition: temperature increased from 25° C. to 160° C.

| pH solubility profile (pH solubility profile) | Hysteresis between initial and final state, DVS [2] | Water (moisture) uptake, DVS [2] [%] | Decomposition (degradation) temperature [3] | XRPD under RH: phase transition [4] | Particle size D10 after sonication [5] [μm] | Particle size D50 after sonication [5] [μm] | Particle size D90 after sonication [5] [μm] | Particle size D10 [5] [μm] | Particle size D50 [5] [μm] | Particle size D90 [5] [μm] | XRPD under temperature: phase transition [6] | Compound | Hydrophilicity / hygroscopicity rating from DVS [2] | also measured |
| --- | --- | --- | --- | --- | --- | --- | --- | --- | --- | --- | --- | --- | --- | --- |
| – | – | – | – | – | – | – | – | – | – | – | – | O=C(Nc1cc(F)c(F)c(F)c1)c1ccc(F)c(S(=O)(=O)N2CCC(O)CC2)c1 [Compound (1), 4-fluoro-3-((4-hydroxypiperidin-1-yl)sulfonyl)-N-(3,4,5-trifluorophenyl)benzamide] | – | Solubility in silicon oil ([1]; silicon oil, dispersant of the particle size measurement): not soluble |
| Slightly soluble | No hysteresis | 1.5 | above 300 °C | No transition phase from 10% | 4.7 | 14.2 | 66.9 | 5.8 | 69.1 | 342.6 | sensitive to the temperature | O=C(Nc1cc(F)c(F)c(F)c1)c1ccc(F)c(S(=O)(=O)N2CCC(O)CC2)c1 [Form I, 4-fluoro-3-((4-hydroxypiperidin-1-yl)sulfonyl)-N-(3,4,5-trifluorophenyl)benzamide] | slightly hydrophilic; also recorded: low hydrophilicity | solubility ([1]; organic solvent or mixture, MTBE, 25° C., read-out: Solubility in MTBE): < 2000 µg/mL; solubility ([1]; water, 25° C., read-out: Solubility in water): < 2000 µg/mL; Hydrophilicity / hygroscopicity rating from DVS ([2]; listed as FI): 100% ⋄ slightly hydrophilic.; Decomposition (degradation) temperature ([3]; listed as FI): Decomposition >300 °C; Impact of relative humidity on the crystalline phase (XRPD) ([4]; RH 7-30-90% at 25 or 40° C.): no impact; Particle size D10 after sonication ([5]; listed as FI): D10 = 4.7 μm; Particle size D50 after sonication ([5]; listed as FI): D50 = 14.2 μm; Particle size D90 after sonication ([5]; listed as FI): D90 = 66.9 μm; Temperature from which the phase transition starts (XRPD) ([6]; heating from 25° C. to 160° C.): 100 °C; Temperature at which the phase transition is complete (XRPD) ([6]; heating from 25° C. to 160° C., not reversible): 160 °C; XRPD under temperature: phase transition ([6]; listed as FI): Complete transition towards |
| Slightly soluble | No hysteresis | 0.8 | above 300 °C | No transition phase from 10% | 4.2 | 20.0 | 37.5 | 9.8 | 23.7 | 45.8 | no phase transition | O=C(Nc1cc(F)c(F)c(F)c1)c1ccc(F)c(S(=O)(=O)N2CCC(O)CC2)c1 [Form XVI, 4-fluoro-3-((4-hydroxypiperidin-1-yl)sulfonyl)-N-(3,4,5-trifluorophenyl)benzamide] | slightly hydrophilic; also recorded: low hydrophilicity | Solubility in MTBE ([1]; MTBE, 25° C.): In MTBE <2 g/L at 25 °C; Solubility in water ([1]; water, 25° C.): In Water <2 g/L at 25 °C; Hydrophilicity / hygroscopicity rating from DVS ([2]; listed as FXVI): 100% ⋄ slightly hydrophilic.; Water (moisture) uptake, DVS ([2]; listed as FXVI): Uptake of 0.8% from 0 to; Decomposition (degradation) temperature ([3]; listed as FXVI): Decomposition >300 °C; Impact of relative humidity on the crystalline phase (XRPD) ([4]; RH 7-30-90% at 25 or 45° C.): no impact; Stability of the crystalline form with respect to temperature and relative humidity ([4]; XRPD monitoring at higher temperatures and varying humidity): high stability; also recorded: maintains its crystallinity; also recorded: highly stable; Particle size D10 after sonication ([5]; listed as FXVI): D10 = 4.2 μm; Particle size D50 after sonication ([5]; listed as FXVI): D50 = 20.0 μm; Particle size D90 after sonication ([5]; listed as FXVI): D90 = 37.5 μm; XRPD under temperature: phase transition ([6]; listed as FXVI): No transition phase until |

Reference: patent publication US10077239B2, “Crystalline forms of a hepatitis B antiviral agent” (NOVIRA THERAPEUTICS, INC, priority 2015, dated 2018)
